Measurements as given in US20220315631A1, “STAPLED BETA-CATENIN LIGANDS” (Ohio State Innovation Foundation, priority 2019, published 2022).
Values belong to the molecule of their own block, whether it stands above or below them. Positions of bridges follow the written chain, without caps; N, C: chain ends. Non-standard residues stand in square brackets, D forms with d. Residues, ends and D or L forms follow the SMILES beside them. Chains are numbered I, II in the order given. 2Nal = N[C@@H](Cc1ccc2ccccc2c1)C(=O)O; Dap = NC[C@H](N)C(=O)O; AEEA = NCCOCCOCC(=O)O

What was measured:
SW480 cells = type: cell-based
Procedure: (§1) MTT Assay. SW480 (Wnt-addicted) and MCF7 (Wnt-independent) cells were seeded in 96-well plate with 3×10^3 cells per well, and allowed to grow overnight. […] After that, 10 μL of an MTT stock solution (5 mg/mL) was added into each well and the plate was incubated at 37° C. for 4 h. 100 μL of SDS-HCl solubilizing solution was added and the plate was incubated at 37° C. overnight. The absorbance of the formazan product formed was measured at 570 nm on a Tecan microtiter plate reader. Cells were incubated with serially diluted compounds for 72 hours in the presence of 10% FBS. Data reported represent the mean±SD of 3 independent experiments.
(§2) Cell Viability Assay. Cell viability was determined using the MTT assay. […] Trypsin was neutralized with the addition of warm DPBS and cells were pelleted down at 200 g for 5 min at 4° C. […] Com-pounds were serially diluted in DPBS with standardized DMSO concentration (0.5% v/v) and added to each well. […] After that, 10 μL of MTT solution was added to each well, followed by incubation for 4 h at 37° C., 5% CO2. […] The next day, A565 was determined using a Tecan M1000 Infinite plate reader and absorbance values were standardized against cell-free wells and normalized to untreated control cells. Data was analyzed using GraphPad Prism v. […]

β-catenin = biological target: T1, β-catenin (Homo sapiens, UniProt P35222); experiment: FP-based competition assay for binding to β-catenin
T1 construct: cells harboring plasmid pGEX-β-catenin(133-665)52 were grown in LB medium; made in house; host or cells: E. coli BL21 (DE3)
T1 sequence (P35222 133-665): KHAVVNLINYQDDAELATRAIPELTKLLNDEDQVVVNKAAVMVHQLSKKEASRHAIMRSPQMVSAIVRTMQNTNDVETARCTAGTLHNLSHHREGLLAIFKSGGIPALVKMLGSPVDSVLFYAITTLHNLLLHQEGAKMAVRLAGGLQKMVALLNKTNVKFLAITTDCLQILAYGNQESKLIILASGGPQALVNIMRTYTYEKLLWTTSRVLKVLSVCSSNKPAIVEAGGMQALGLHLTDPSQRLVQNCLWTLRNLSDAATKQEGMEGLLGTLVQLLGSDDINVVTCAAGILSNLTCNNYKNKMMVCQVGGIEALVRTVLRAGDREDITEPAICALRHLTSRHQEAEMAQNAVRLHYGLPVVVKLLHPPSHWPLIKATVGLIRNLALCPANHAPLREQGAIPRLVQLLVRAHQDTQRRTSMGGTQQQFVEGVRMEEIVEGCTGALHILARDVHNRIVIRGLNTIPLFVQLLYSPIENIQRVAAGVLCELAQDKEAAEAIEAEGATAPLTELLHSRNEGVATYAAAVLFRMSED
Procedure: Samples were transferred into black-on-black 384-well non-binding microplates (Greiner) and FP was measured using a Tecan M1000 Infinite plate reader. The data were analyzed using GraphPad Prism v. 8.0 and normalized to FP values corresponding to fully bound/unbound probe. All binding values reported are the mean±SD of independent experiments.
Protein Purification. […] Cells were harvested by centrifugation and lysed in lysis buffer (20 mM Tris, pH 8.0, 150 mM NaCl, 2 mM DTT, 1% Triton-X100, 200 mM EDTA, 10 mg/mL PMSF, and 0.2 mg/mL lysozyme) on ice for 20 min, followed by sonication (8 s off, 2 s on, 1 min total, performed twice at 70% amplitude). The homogenate was centrifuged (13,000 g for 30 min at 4° C. and the clear supernatant was loaded onto an equilibrated glutathione-agarose column. After exhaustive washing with wash buffer (20 mM Tris, pH 7.4, 150 mM NaCl, 2 mM DTT), the bound GST-β-catenin was eluted with wash buffer supplemented with 10 mM glutathione, concentrated, and stored at −80° C. in 30% glycerol.

Human serum stability = type: in vitro ADME
Procedure: Human Serum Stability. […] After protein precipitation was complete, each aliquot was centrifuged (15000 g, 5 min, 4° C.) and analyzed by RP-HPLC. The percentage of remaining peptide at a given time point was determined by integrating the peak area and compared it to that of the untreated control (100%).

MCF7 cells = experiment: MTT cell viability assay, MCF7 (Wnt-independent) cells; type: cell-based; settings: up to 20 μM
Procedure: as §1, §2

GST-β-catenin, P35222 = biological target: T2, GST-β-catenin, P35222; experiment: fluorescence polarization; 10 nM FAM-peptide 1 against serial dilutions of GST-β-catenin
T2 chain: T1 sequence (P35222 133-665)

Molecule: CC[C@H](C)[C@@H]1NC(=O)[C@@H](NC(=O)[C@H](CCC(=O)O)NC(=O)[C@@H]2CCCN2C(=O)[C@H](Cc2ccc(O)cc2)NC(=O)CNC(=O)CNC(C)=O)CC(=O)NCCCC[C@@H](C(=O)N[C@@H](Cc2c[nH]cn2)C(=O)N[C@@H](CC(C)C)C(=O)N[C@@H](CCC(N)=O)C(=O)N[C@@H](CCCNC(=N)N)C(=O)N[C@H](C(=O)N[C@H](C(=O)N[C@@H](CC(C)C)C(=O)NCCOCCOCC(=O)NCCOCCOCC(=O)N[C@@H](CNC(=O)CC[C@@H]2NC(=O)[C@@H](CCCNC(=N)N)NC(=O)[C@H](CCCNC(=N)N)NC(=O)[C@@H](CCCNC(=N)N)NC(=O)[C@H](CCCNC(=N)N)NC(=O)[C@H](Cc3ccc4ccccc4c3)NC(=O)[C@@H](Cc3ccccc3)NC2=O)C(N)=O)[C@@H](C)CC)C(C)C)NC(=O)[C@H](CC(=O)O)NC(=O)[C@H](CC(C)C)NC1=O [peptide 2] (I: Ac-GGYPEDILDKHLQRVIL[AEEA][AEEA][Dap]-NH2 / II: cyclo([2Nal]R[dR]R[dR]E[dF]); lactam I:6-I:10; amide I:20-II:6)
EC50 (SW480 cells; MTT assay, read-out: EC50, viability / anti-proliferative activity against SW480 cells): 3700 nM

lower affinity for β-catenin than peptide 2 (β-catenin; relative to peptide 2): ~10 fold
Molecule: CC[C@H](C)[C@@H]1NC(=O)[C@@H](NC(=O)[C@H](CCC(=O)O)NC(=O)[C@@H]2CCCN2C(=O)[C@H](Cc2ccc(O)cc2)NC(=O)CNC(=O)CNC(C)=O)CC(=O)NCCCC[C@@H](C(=O)N[C@@H](CC(=O)O)C(=O)N[C@@H](CC(C)C)C(=O)N[C@@H](CCC(N)=O)C(=O)N[C@@H](CCCNC(=N)N)C(=O)N[C@H](C(=O)N[C@@H](C)C(=O)N[C@@H](CC(C)C)C(=O)NCCOCCOCC(=O)NCCOCCOCC(=O)N[C@@H](CNC(=O)CC[C@@H]2NC(=O)[C@@H](CCCNC(=N)N)NC(=O)[C@H](CCCNC(=N)N)NC(=O)[C@@H](CCCNC(=N)N)NC(=O)[C@H](CCCNC(=N)N)NC(=O)[C@H](Cc3ccc4ccccc4c3)NC(=O)[C@@H](Cc3ccccc3)NC2=O)C(N)=O)C(C)C)NC(=O)[C@H](Cc2c[nH]cn2)NC(=O)[C@H](CC(C)C)NC1=O [peptide 3] (I: Ac-GGYPEDILHKDLQRVAL[AEEA][AEEA][Dap]-NH2 / II: cyclo([2Nal]R[dR]R[dR]E[dF]); lactam I:6-I:10 (inferred); amide I:20-II:6 (inferred); ring closure inferred)
viability of SW480 cells (SW480 cells; at the highest concentration tested (20 μM)): only slight decreases

IC50 (β-catenin; IC50, competition with FAM-labeled peptide 1 (10 nM), 50 nM GST-β-catenin, read-out: KD or IC50): 305 ± 19 nM
half-life at 100 μM (Human serum stability; human, human serum diluted 1:4 in DPBS, human serum, read-out: serum t1/2 (converted)): ~12 h
Molecule: CC[C@H](C)[C@@H]1NC(=O)[C@@H](NC(=O)[C@H](CCC(=O)O)NC(=O)[C@@H]2CCCN2C(=O)[C@H](Cc2ccc(O)cc2)NC(=O)CNC(=O)CNC(C)=O)CC(=O)NCCCC[C@@H](C(=O)N[C@@H](Cc2c[nH]cn2)C(=O)N[C@@H](CC(C)C)C(=O)N[C@@H](CCC(N)=O)C(=O)N[C@@H](CCCNC(=N)N)C(=O)N[C@H](C(=O)N[C@H](C(=O)N[C@@H](CC(C)C)C(=O)NCCC(N)=O)[C@@H](C)CC)C(C)(C)C)NC(=O)[C@H](CC(=O)O)NC(=O)[C@H](CC(C)C)NC1=O [Peptide 9, Ac-GGYPEDILDKHLQRZIL(β-Ala)-NH2]

Molecule: CC[C@H](C)[C@@H]1NC(=O)[C@@H](NC(=O)[C@H](CCC(=O)O)NC(=O)[C@@H]2CCCN2C(=O)[C@H](Cc2ccc(O)cc2)NC(C)=O)CC(=O)NCCCC[C@@H](C(=O)N[C@@H](Cc2c[nH]cn2)C(=O)N[C@@H](CC(C)C)C(=O)N[C@@H](CCC(N)=O)C(=O)N[C@@H](CCCNC(=N)N)C(=O)N[C@H](C(=O)N[C@H](C(=O)N[C@@H](CC(C)C)C(N)=O)[C@@H](C)CC)C(C)(C)O)NC(=O)[C@H](CC(=O)O)NC(=O)[C@H](CC(C)C)NC1=O [Peptide 37]
binding affinity for β-catenin compared to peptide 9 (β-catenin; relative to peptide 9): identical
serum stability compared to peptide 9 (Human serum stability; relative to peptide 9): identical

Molecule: CC[C@H](C)[C@@H]1NC(=O)[C@@H](NC(=O)[C@H](CCC(=O)O)NC(=O)[C@@H]2CCCN2C(=O)[C@H](Cc2ccc(O)cc2)NC(=O)CNC(=O)CNC(C)=O)CC(=O)NCCCC[C@@H](C(=O)N[C@@H](Cc2c[nH]cn2)C(=O)N[C@@H](CC(C)C)C(=O)N[C@@H](CCC(N)=O)C(=O)N[C@@H](CCCNC(=N)N)C(=O)N[C@H](C(=O)N[C@H](C(=O)N[C@@H](CC(C)C)C(=O)NCCOCCOCC(=O)NCCOCCOCC(=O)N[C@@H](CNC(=O)[C@H](CCC(N)=O)NC(=O)[C@@H]2CCCN2C(=O)[C@@H]2CCCN2C(=O)[C@H](CCCNC(=N)N)NC(=O)[C@H](CCCNC(=N)N)NC(=O)[C@H](CCCNC(=N)N)NC(=O)[C@H](CCC(N)=O)NC(=O)[C@H](CCCNC(=N)N)NC(=O)[C@H](CCCNC(=N)N)NC(=O)[C@H](CCCCN)NC(=O)[C@H](CCCCN)NC(=O)[C@H](CCCNC(=N)N)NC(=O)CN)C(N)=O)[C@@H](C)CC)C(C)C)NC(=O)[C@H](CC(=O)O)NC(=O)[C@H](CC(C)C)NC1=O [peptide 4]
effect on MCF7 cell viability (MCF7 cells): reduced the viability of MCF7 cells

Molecule: CC[C@H](C)[C@@H]1NC(=O)[C@@H](NC(=O)[C@H](CCC(=O)O)NC(=O)[C@@H]2CCCN2C(=O)[C@H](Cc2ccc(O)cc2)NC(=O)CNC(=O)CNC(C)=O)CC(=O)NCCCC[C@@H](C(=O)N[C@@H](Cc2c[nH]cn2)C(=O)N[C@@H](CC(C)C)C(=O)N[C@@H](CCC(N)=O)C(=O)N[C@@H](CCCNC(=N)N)C(=O)N[C@H](C(=O)N[C@H](C(=O)N[C@@H](CC(C)C)C(=O)NCCOCCOCC(=O)NCCOCCOCC(=O)N[C@@H](CNC(=O)[C@H](CCCNC(=N)N)NC(=O)[C@H](CCCNC(=N)N)NC(=O)[C@H](CCCNC(=N)N)NC(=O)[C@H](CCCNC(=N)N)NC(=O)[C@H](CCCNC(=N)N)NC(=O)[C@H](CCCNC(=N)N)NC(=O)[C@H](CCCNC(=N)N)NC(=O)[C@H](CCCNC(=N)N)NC(=O)[C@@H](N)CCCNC(=N)N)C(N)=O)[C@@H](C)CC)C(C)C)NC(=O)[C@H](CC(=O)O)NC(=O)[C@H](CC(C)C)NC1=O [peptide 5]
effect on MCF7 cell viability (MCF7 cells): reduced the viability of MCF7 cells

Kd (GST-β-catenin, P35222): 18 nM
B1: peptide 1 (peptide)
peptide: GGYPECILDCHLQRVIL
modifications: not checked
